Tested on: moderate-to-severe chronic spontaneous urticaria (CSU)
Assay: Phase 2 CSU study: hives severity score over 7 days (HSS7)
Type: in vivo, human
Parameters: key to HSS7 Change from baseline, Median / HSS7, Median / HSS7, Max / HSS7 Change from baseline, Q1 / HSS7 Change from baseline, Q3 / HSS7 Change from baseline, Max: 7-day sum of daily hive scores, each 0 = none to 3 = >50 hives
Source text: The study comprises a 12 week, randomized, double-blind, placebo-controlled, multi-center, dose-ranging efficacy and safety phase, followed by a 40 week open label extension (OLE) phase (see FIG. 1).
The study consists of three phases and an optional OLE phase.
The UAS is a validated PRO measure. The daily UAS is the sum of the daily Hive Severity Score (HSS, ranging from 0=None to 3=more than 50 hives) and the daily Itch Severity Score (ISS, ranging from 0=None to 3=intense), the 2 key urticaria signs and symptoms which are wheals and itch. The daily UAS scores range from 0 to 6 point/day. Daily UAS scores are summed over 7-day period to create the UAS7, ranging from 0 to 42, and are composed of the HSS7 and ISS7 components. […] Patients were to complete the UAS using the e-diary. The e-diary was to be used once daily on the same time of each day recording of participant's answers to the urticaria activity score over 7 days (UAS7) questionnaire. For participants who entered the OLE phase, their answers to the UAS7 questionnaire were also to be collected from Week 20 to Week24 and from Week 48 to Week 52.
The following secondary endpoints were to be analyzed using the same approach as for the primary endpoint: • Change from baseline in UAS7 at Week 4 • Change from baseline in UAS7 at Week 12 (for US and US reference countries) • Change from baseline in ISS7 at Week 12 (except US and US reference countries) • Change from baseline in HSS7 at Week 12

[1] = Week 7, 400 mg BID, Omalizumab-Naïve Population
[2] = Week 7, 400 mg BID, Patients with Prior Omalizumab Use
[3] = Week 7, 400 mg QPM, Omalizumab-Naïve Population
[4] = Week 7, 400 mg QPM, Patients with Prior Omalizumab Use
[5] = Week 7, 400 mg TID, Omalizumab-Naïve Population
[6] = Week 7, 400 mg TID, Patients with Prior Omalizumab Use
[7] = Week 8, 400 mg BID, Omalizumab-Naïve Population
[8] = Week 8, 400 mg BID, Patients with Prior Omalizumab Use
[9] = Week 8, 400 mg QPM, Omalizumab-Naïve Population
[10] = Week 8, 400 mg QPM, Patients with Prior Omalizumab Use
[11] = Week 8, 400 mg TID, Omalizumab-Naïve Population
[12] = Week 8, 400 mg TID, Patients with Prior Omalizumab Use
[13] = Week 9, 400 mg BID, Omalizumab-Naïve Population
[14] = Week 9, 400 mg BID, Patients with Prior Omalizumab Use
[15] = Week 9, 400 mg QPM, Omalizumab-Naïve Population
[16] = Week 9, 400 mg QPM, Patients with Prior Omalizumab Use
[17] = Week 9, 400 mg TID, Omalizumab-Naïve Population
[18] = Week 9, 400 mg TID, Patients with Prior Omalizumab Use

CC(C)(C=C(C#N)C(=O)N1CCC[C@@H](n2nc(-c3ccc(Oc4ccccc4)cc3F)c3c(N)ncnc32)C1)N1CCN(C2COC2)CC1 [rilzabrutinib, (R)-2-[3-[4-amino-3-(2-fluoro-4-phenoxy-phenyl)pyrazolo[3,4-d]pyrimidin-1-yl]piperidine-1-carbonyl]-4-methyl-4-[4-(oxetan-3-yl)piperazin-1-yl]pent-2-enenitrile]
HSS7, Mean (SD) [1]: 7.34 (6.12)
HSS7, Median [1]: 7.00
HSS7 Change from baseline, Mean (SD) [1]: −6.75 (5.85)
HSS7 Change from baseline, Median [1]: −7.00
HSS7 Percent change from baseline, Mean (SD) [1]: −48.07 (38.31) %
HSS7 Percent change from baseline, Median [1]: −50.00%
HSS7, Mean (SD) [2]: 4.80 (7.46)
HSS7, Median [2]: 0.00
HSS7 Change from baseline, Mean (SD) [2]: −10.00 (9.67)
HSS7 Change from baseline, Median [2]: −12.00
HSS7 Percent change from baseline, Median [2]: −100.00%
HSS7, Mean (SD) [3]: 10.43 (5.27)
HSS7, Median [3]: 8.40
HSS7 Change from baseline, Mean (SD) [3]: −4.82 (5.35)
HSS7 Change from baseline, Median [3]: −4.00
HSS7 Percent change from baseline, Mean (SD) [3]: −29.76 (31.10) %
HSS7 Percent change from baseline, Median [3]: −35.71%
HSS7, Mean (SD) [4]: 9.00 (NC)
HSS7, Median [4]: 9.00
HSS7 Change from baseline, Mean (SD) [4]: −11.00 (NC)
HSS7 Change from baseline, Median [4]: −11.00
HSS7 Percent change from baseline, Mean (SD) [4]: −55.00 (NC) %
HSS7 Percent change from baseline, Median [4]: −55.00%
HSS7, Mean (SD) [5]: 6.40 (4.54)
HSS7, Median [5]: 5.92
HSS7 Change from baseline, Mean (SD) [5]: −7.60 (5.60)
HSS7 Change from baseline, Median [5]: −6.58
HSS7 Percent change from baseline, Mean (SD) [5]: −52.36 (32.23) %
HSS7 Percent change from baseline, Median [5]: −50.69%
HSS7, Mean (SD) [6]: 5.11 (4.08)
HSS7, Median [6]: 4.33
HSS7 Change from baseline, Mean (SD) [6]: −10.92 (7.20)
HSS7 Change from baseline, Median [6]: −9.50
HSS7 Percent change from baseline, Mean (SD) [6]: −63.38 (24.01) %
HSS7 Percent change from baseline, Median [6]: −54.41%
HSS7, Mean (SD) [7]: 6.66 (6.70)
HSS7, Median [7]: 5.00
HSS7 Change from baseline, Mean (SD) [7]: −7.49 (6.10)
HSS7 Change from baseline, Median [7]: −7.00
HSS7 Percent change from baseline, Mean (SD) [7]: −54.71 (40.69) %
HSS7 Percent change from baseline, Median [7]: −74.07%
HSS7, Mean (SD) [8]: 4.80 (7.46)
HSS7, Median [8]: 0.00
HSS7 Change from baseline, Mean (SD) [8]: −10.00 (9.67)
HSS7 Change from baseline, Median [8]: −12.00
HSS7 Percent change from baseline, Median [8]: −100.00%
HSS7, Median [9]: 9.00
HSS7 Change from baseline, Mean (SD) [9]: −4.56 (5.35)
HSS7 Change from baseline, Median [9]: −4.00
HSS7 Percent change from baseline, Mean (SD) [9]: −29.79 (35.34) %
HSS7 Percent change from baseline, Median [9]: −28.57%
HSS7, Mean (SD) [10]: 9.00 (NC)
HSS7, Median [10]: 9.00
HSS7 Change from baseline, Mean (SD) [10]: −11.00 (NC)
HSS7 Change from baseline, Median [10]: −11.00
HSS7 Percent change from baseline, Mean (SD) [10]: −55.00 (NC) %
HSS7 Percent change from baseline, Median [10]: −55.00%
HSS7, Mean (SD) [11]: 6.12 (4.80)
HSS7, Median [11]: 6.00
HSS7 Change from baseline, Mean (SD) [11]: −7.88 (5.18)
HSS7 Change from baseline, Median [11]: −7.50
HSS7 Percent change from baseline, Mean (SD) [11]: −56.04 (32.39) %
HSS7 Percent change from baseline, Median [11]: −56.35%
HSS7, Mean (SD) [12]: 3.17 (4.45)
HSS7, Median [12]: 1.50
HSS7 Change from baseline, Mean (SD) [12]: −12.86 (6.28)
HSS7 Percent change from baseline, Mean (SD) [12]: −80.91 (20.45) %
HSS7 Percent change from baseline, Median [12]: −86.73%
HSS7, Mean (SD) [13]: 7.01 (7.58)
HSS7, Median [13]: 3.50
HSS7 Change from baseline, Mean (SD) [13]: −6.95 (6.00)
HSS7 Change from baseline, Median [13]: 7.00
HSS7 Percent change from baseline, Mean (SD) [13]: −53.79 (43.28) %
HSS7 Percent change from baseline, Median [13]: −68.18%
HSS7, Mean (SD) [14]: 4.80 (7.46)
HSS7, Median [14]: 0.00
HSS7 Change from baseline, Mean (SD) [14]: −10.00 (9.67)
HSS7 Change from baseline, Median [14]: −12.00
HSS7 Percent change from baseline, Median [14]: −100.00%
HSS7, Mean (SD) [15]: 9.82 (5.59)
HSS7, Median [15]: 9.20
HSS7 Change from baseline, Mean (SD) [15]: −5.33 (5.35)
HSS7 Change from baseline, Median [15]: 4.92
HSS7 Percent change from baseline, Mean (SD) [15]: −34.46 (32.68) %
HSS7 Percent change from baseline, Median [15]: −33.59%
HSS7, Mean (SD) [16]: 8.00 (NC)
HSS7, Median [16]: 8.00
HSS7 Change from baseline, Mean (SD) [16]: −12.00 (NC)
HSS7 Change from baseline, Median [16]: −12.00
HSS7 Percent change from baseline, Mean (SD) [16]: −60.00 (NC) %
HSS7 Percent change from baseline, Median [16]: −60.00%
HSS7, Mean (SD) [17]: 5.88 (4.98)
HSS7, Median [17]: 6.00
HSS7 Change from baseline, Mean (SD) [17]: −8.19 (5.87)
HSS7 Change from baseline, Median [17]: −8.00
HSS7 Percent change from baseline, Mean (SD) [17]: −55.85 (38.63) %
HSS7 Percent change from baseline, Median [17]: −57.14%
HSS7, Mean (SD) [18]: 3.25 (4.37)
HSS7, Median [18]: 2.00
HSS7 Change from baseline, Mean (SD) [18]: −12.78 (6.34)
HSS7 Change from baseline, Median [18]: −12.00
HSS7 Percent change from baseline, Mean (SD) [18]: −80.12 (19.92) %
HSS7 Percent change from baseline, Median [18]: −86.97%
HSS7, Mean (SD) (Week 10, 400 mg BID, Omalizumab-Naïve Population): 7.05 (7.27)

Source: patent US20260256792A1, “TREATMENT OF CHRONIC SPONTANEOUS URTICARIA BY ADMINISTERING (R)-2-[3-[4-AMINO-3-(2-FLUORO-4-PHENOXY-PHENYL)PYRAZOLO[3,4-D]PYRIMIDIN-1-YL]PIPERIDINE-1-CARBONYL]-4-METHYL-4-[4-(OXETAN-3-YL)PIPERAZIN-1-YL]PENT-2-ENENITRILE” (priority 2023, published 2026)
